In brackets after ≈: the same amount, converted by molar mass. Like-named read-outs stand apart in the source and are kept apart here.
Columns and labels:
[1] = system: S. aureus ATCC 29213; test: MIC and MBC determination; format: cell-based; conditions: S. aureus
[2] = system: F. oxysporum (RCMB 008002); test: MIC and MFC determination; format: cell-based
[3] = system: CD4+ and CD8+ T lymphocytes; test: In vivo T lymphocyte subsets from peripheral blood, flow cytometry; conditions: mice
From the text: Activation of immune cells as CD4^+ and CD8^+ T cells is one possible mechanism of a drug’s immune stimulus activity. An increase in these cells is thought to be a good indicator of an active immune response to infections. So, our work extended to study the effect of the most promising derivatives (2d, 8, and 11) on T lymphocyte subsets (CD4^+ and CD8^+) from peripheral blood, and determined the relative level in model mice that analyzed by flow cytometry after the period of treating.
(§1) In vitro intracellular killing activities for the most promising six derivatives 2a, 2b, 2d, 3a, 8, and 11 were performed according to reported methods.

[4] = system: C. albicans (ATCC 10231); test: MIC and MFC determination; format: cell-based
[5] = system: spleen and thymus; test: In vivo immunomodulation: immune organ weight and indexes; design: Spleen index: unit not given here; conditions: mice
From the text: Both the spleen and thymus have important antibacterial and fungal immune organ responses, and any change in weight, and indexes can reflect the level of immune regulation. Additionally, the relative spleen and thymus indexes are important indices for nonspecific immunity and potential immunomodulatory compounds that increase the spleen and thymus weight. This increase is due to immune cells’ stimulation in the spleen and thymus. […]

[6] = system: Salmonella typhi (S. typhi ATCC 6539); test: microbe, parasite or virus in culture; format: cell-based; conditions: Salmonella enterica, Salmonella typhi
[7] = biological target: S. aureus DNA gyrase (Staphylococcus aureus, UniProt P0A0K8+P20831); test: In vitro DNA gyrase supercoiling enzymatic assay; format: biochemical
Chain of S. aureus DNA gyrase (P20831 whole entry): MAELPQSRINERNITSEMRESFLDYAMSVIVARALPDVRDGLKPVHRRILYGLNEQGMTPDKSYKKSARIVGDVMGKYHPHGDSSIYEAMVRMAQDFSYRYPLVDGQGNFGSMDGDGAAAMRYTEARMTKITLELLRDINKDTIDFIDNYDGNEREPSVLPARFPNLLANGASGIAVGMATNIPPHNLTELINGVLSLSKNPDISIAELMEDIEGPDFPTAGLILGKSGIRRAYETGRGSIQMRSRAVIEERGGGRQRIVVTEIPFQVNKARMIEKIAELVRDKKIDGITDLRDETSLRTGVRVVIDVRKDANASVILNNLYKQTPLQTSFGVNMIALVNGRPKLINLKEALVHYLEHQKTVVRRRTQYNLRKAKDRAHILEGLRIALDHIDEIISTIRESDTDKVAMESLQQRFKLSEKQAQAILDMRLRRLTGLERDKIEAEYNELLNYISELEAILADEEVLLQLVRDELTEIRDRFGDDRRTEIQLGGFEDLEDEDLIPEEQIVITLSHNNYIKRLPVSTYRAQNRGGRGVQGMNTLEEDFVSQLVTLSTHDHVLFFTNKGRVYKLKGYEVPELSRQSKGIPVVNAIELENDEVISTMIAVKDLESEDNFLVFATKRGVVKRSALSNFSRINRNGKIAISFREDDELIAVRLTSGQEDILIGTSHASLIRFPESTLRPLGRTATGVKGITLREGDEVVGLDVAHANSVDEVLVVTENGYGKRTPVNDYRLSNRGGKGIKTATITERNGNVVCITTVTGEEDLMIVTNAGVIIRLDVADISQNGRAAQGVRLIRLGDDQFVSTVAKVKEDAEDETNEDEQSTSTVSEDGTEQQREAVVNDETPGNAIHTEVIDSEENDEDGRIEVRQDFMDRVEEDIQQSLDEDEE
Chain of S. aureus DNA gyrase (P0A0K8 whole entry): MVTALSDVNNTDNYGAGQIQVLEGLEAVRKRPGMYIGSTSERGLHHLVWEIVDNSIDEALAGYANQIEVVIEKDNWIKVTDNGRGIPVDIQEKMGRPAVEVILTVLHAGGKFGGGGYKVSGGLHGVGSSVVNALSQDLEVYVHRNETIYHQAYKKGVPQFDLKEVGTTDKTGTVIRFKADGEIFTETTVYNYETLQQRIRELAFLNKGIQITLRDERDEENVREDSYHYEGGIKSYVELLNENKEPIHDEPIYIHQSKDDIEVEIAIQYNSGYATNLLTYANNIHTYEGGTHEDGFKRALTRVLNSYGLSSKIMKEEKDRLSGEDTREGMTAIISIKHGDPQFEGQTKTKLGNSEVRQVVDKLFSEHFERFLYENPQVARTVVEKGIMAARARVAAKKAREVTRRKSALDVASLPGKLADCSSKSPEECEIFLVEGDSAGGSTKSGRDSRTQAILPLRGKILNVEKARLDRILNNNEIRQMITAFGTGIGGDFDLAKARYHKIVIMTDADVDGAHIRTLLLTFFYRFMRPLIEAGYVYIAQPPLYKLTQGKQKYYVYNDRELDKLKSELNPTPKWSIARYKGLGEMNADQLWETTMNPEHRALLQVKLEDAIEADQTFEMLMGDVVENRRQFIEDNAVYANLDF

[8] = system: neutrophils; test: In vitro intracellular killing, nitro blue tetrazolium (NBT) reduction assay; format: cell-based
Description: One of the broad methods used for determining immune disorders for patients in hospitals is the NBT test to measure their immune responses. The reduction in NBT dye provides information about the phagocytic and intracellular killing functions of neutrophils, which are important for microbiocidal activity. The most promising derivatives (2a, 2b, 2d, 3a, 8, and 11) were evaluated against in vitro intracellular killing activities using a nitro blue tetrazolium (NBT) reduction assay and the obtained results expressed in percentage (%): increasing the percentage led to an improvement in the killing ability of the neutrophils used as innate immunity.
as §1

[9] = system: E. coli ATCC 25922; test: MIC and MBC determination; format: cell-based; conditions: Escherichia coli, ATCC25922, E. coli
[10] = biological target: E. coli DHFR (dihydrofolate reductase) (Escherichia coli, UniProt P0ABQ4); test: In vitro DHFR enzymatic assay; format: biochemical
Chain of E. coli DHFR (dihydrofolate reductase) (P0ABQ4 whole entry): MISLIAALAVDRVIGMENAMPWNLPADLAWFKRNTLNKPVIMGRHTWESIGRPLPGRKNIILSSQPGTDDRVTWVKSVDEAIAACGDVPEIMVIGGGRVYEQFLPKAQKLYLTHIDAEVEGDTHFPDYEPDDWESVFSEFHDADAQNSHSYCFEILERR

[11] = system: S. aureus ATCC 33591; test: Inhibition zone against multidrug-resistant bacteria; format: cell-based; conditions: MDRB S. aureus ATCC 33591
In short: (§2)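 Readout: clear-zone diameter, mm. Agar plate diffusion format; norfloxacin used as comparator control.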

[12] = system: S. aureus ATCC 43300; test: as above; format: cell-based; conditions: MDRB S. aureus ATCC 43300
In short: as §2

[13] = system: E. coli ATCC BAA-196; test: as above; format: cell-based; conditions: MDRB E. coli ATCC BAA-196
In short: as §2

[14] = system: P. aeruginosa ATCC BAA-2111; test: as above; format: cell-based; conditions: MDRB P. aeruginosa ATCC BAA-2111
In short: as §2

[15] = system: S. aureus ATCC 33591; test: MIC and MBC against multidrug-resistant strains; format: cell-based; conditions: Staphylococcus aureus, ATCC33591, S. aureus ATCC 33591
From the text: (§3) Norfloxacin was used as a positive control for the multidrug resistance study.
(§4) The experiment was repeating for three-times.

[16] = system: S. aureus ATCC 43300; test: MIC and MBC against multidrug-resistant strains; format: cell-based; conditions: Staphylococcus aureus, ATCC43300, S. aureus ATCC 43300
From the text: as §3, §4

[17] = system: E. coli ATCC BAA-196; test: MIC and MBC against multidrug-resistant strains; format: cell-based; conditions: Escherichia coli, ATCCBAA196, E. coli ATCC BAA-196
From the text: as §3, §4

[18] = system: P. aeruginosa ATCC BAA-2111; test: MIC and MBC against multidrug-resistant strains; format: cell-based; conditions: Pseudomonas aeruginosa, ATCCBAA2111, P. aeruginosa ATCC BAA-2111
From the text: as §3, §4

[19] = system: B. subtilis ATCC 6633; test: MIC and MBC determination; format: cell-based; conditions: Bacillus subtilis, ATCC6633, B. subtilis
[20] = system: E. faecalis ATCC 29212; test: MIC and MBC determination; format: cell-based; conditions: Enterococcus faecalis, ATCC29212, E. faecalis
[21] = system: P. aeruginosa ATCC 27853; test: MIC and MBC determination; format: cell-based; conditions: Pseudomonas aeruginosa, ATCC27853, P. aeruginosa
[22] = system: P. aeruginosa ATCC 27853; test: Inhibition zone, paper disk/agar diffusion; format: cell-based; conditions: P. aeruginosa; Na = no activity
In short: as §2

[23] = system: B. subtilis ATCC 6633; test: Inhibition zone, paper disk/agar diffusion; format: cell-based; conditions: B. subtilis; Na = no activity
In short: as §2

[24] = system: S. aureus ATCC 29213; test: Inhibition zone, paper disk/agar diffusion; format: cell-based; conditions: S. aureus; Na = no activity
In short: as §2

[25] = system: C. albicans (ATCC 10231); test: Inhibition zone, paper disk/agar diffusion; format: cell-based; conditions: Na = no activity
In short: as §2

[26] = system: S. typhi ATCC 6539; test: Inhibition zone, paper disk/agar diffusion; format: cell-based; conditions: S. typhi; Na = no activity
In short: as §2

[27] = system: F. oxysporum (RCMB 008002); test: Inhibition zone, paper disk/agar diffusion; format: cell-based; conditions: Na = no activity
In short: as §2

[28] = system: E. faecalis ATCC 29212; test: Inhibition zone, paper disk/agar diffusion; format: cell-based; conditions: E. faecalis; Na = no activity
In short: as §2

Cc1cc(C)n(-c2ccc(S(=O)(=O)NC(=N)N)cc2)c(=O)c1C#N [Compound 8, N-Carbamimidoyl-4-(3-cyano-4,6-dimethyl-2-oxopyridin-1(2H)-yl) benzenesulfonamide]
MBC [1]: 10.71 ± 0.36 µM (≈ 3.7 µg/mL) | MIC [1]: 5.64 ± 0.58 µM (≈ 1.95 µg/mL) | MBC ([1]; Staphylococcus aureus, ATCC29213, read-out: MBC): 10.7 µM (≈ 3.7 µg/mL) | MIC ([1]; Staphylococcus aureus, ATCC29213, read-out: MIC): 5.64 µM (≈ 1.95 µg/mL) | MFC/MIC [2]: <2 | MFC ([2]; Fusarium oxysporum, RCMB008002, read-out: MFC): 136 ± 1.98 µM (≈ 46.9 µg/mL) | MIC ([2]; Fusarium oxysporum, RCMB008002, read-out: MIC): 90.48 ± 0.84 µM (≈ 31.3 µg/mL) | T cells CD4+ [3]: 78.70 ± 0.56% | T cells CD8+ [3]: 18.44 ± 0.2% | MFC/MIC [4]: <2 | MFC ([4]; Candida albicans, ATCC10231, read-out: MFC): 81.4 ± 0.84 µM (≈ 28.1 µg/mL) | MIC ([4]; Candida albicans, ATCC10231, read-out: MIC): 45.2 ± 0.54 µM (≈ 15.6 µg/mL) | Spleen index [5]: 0.010 ± 0.00 | Spleen weight [5]: 200 ± 0.025 mg | Thymus index [5]: 0.537 ± 0.14 mg/g | Thymus weight [5]: 13.42 ± 0.46 mg | MBC ([6]; read-out: MBC): 19.19 ± 0.14 µM (≈ 6.63 µg/mL) | MIC ([6]; read-out: MIC): 11.3 ± 0.75 µM (≈ 3.9 µg/mL) | IC50 [7]: 39.1 ± 1.72 µM | Intracellular Killing Activity [8]: 136.5 ± 0.3% | MBC ([9]; read-out: MBC): 36.2 ± 0.42 µM (≈ 12.5 µg/mL) | MIC ([9]; read-out: MIC): 22.6 ± 0.42 µM (≈ 7.81 µg/mL) | IC50 [10]: 12.3 ± 0.73 µM | Mean Diameter of Inhibition Zone [11]: 15 ± 0.33 mm | Mean Diameter of Inhibition Zone [12]: 22 ± 0.5 mm | Mean Diameter of Inhibition Zone [13]: 20 ± 0.74 mm | Mean Diameter of Inhibition Zone [14]: 21 ± 0.63 mm | MBC ([15]; read-out: MBC): 46.3 ± 0.58 µM (≈ 16 µg/mL) | MIC ([15]; read-out: MIC): 25.7 ± 0.36 µM (≈ 8.88 µg/mL) | MBC ([16]; read-out: MBC): 34.36 ± 0.24 µM (≈ 11.9 µg/mL) | MIC ([16]; read-out: MIC): 18.1 ± 0.84 µM (≈ 6.25 µg/mL) | MBC ([17]; read-out: MBC): 53.56 ± 0.41 µM (≈ 18.5 µg/mL) | MIC ([17]; read-out: MIC): 26.8 ± 0.65 µM (≈ 9.25 µg/mL) | MBC ([18]; read-out: MBC): 45.2 ± 0.87 µM (≈ 15.6 µg/mL) | MIC ([18]; read-out: MIC): 22.6 ± 0.98 µM (≈ 7.81 µg/mL) | MBC ([19]; read-out: MBC): 30.6 ± 1.78 µM (≈ 10.6 µg/mL) | MIC ([19]; read-out: MIC): 16.1 ± 0.54 µM (≈ 5.57 µg/mL) | MBC ([20]; read-out: MBC): 19.19 ± 0.18 µM (≈ 6.63 µg/mL) | MIC ([20]; read-out: MIC): 11.3 ± 0.52 µM (≈ 3.9 µg/mL) | MBC ([21]; read-out: MBC): 172 ± 1.95 µM (≈ 59.4 µg/mL) | MIC ([21]; read-out: MIC): 90.5 ± 1.07 µM (≈ 31.3 µg/mL) | Mean Diameter of the Inhibition Zone [22]: 25 ± 0.85 mm | Mean Diameter of the Inhibition Zone [23]: 27 ± 0.50 mm | Mean Diameter of the Inhibition Zone [24]: 26 ± 0.14 mm | Mean Diameter of the Inhibition Zone [25]: 24 ± 0.30 mm | Mean Diameter of the Inhibition Zone [26]: 23 ± 0.11 mm | Mean Diameter of the Inhibition Zone [27]: 20 ± 0.82 mm | Mean Diameter of the Inhibition Zone [28]: 25 ± 0.33 mm
